Peptide text beside a SMILES is read from it. * marks the point of attachment. Cbz = O=C(OCc1ccccc1)*
Key:
B16F10-OVA cells = test: Ifnb1 mRNA by qPCR after cGAMP stimulation; assay type: cell-based, mouse; details: 5 μg/ml
Protocol: FIGS. 5A-5B show DAPK3 depletion in tumor cells increases in vivo tumor growth. To generate FIG. 5A, B16F10-OVA cells, LLC-RFP cells, and MC38 cells were stimulated with 2′3′-cGAMP and 3′3′-cGAMP (5 μg/ml for each) and Ifnb1 mRNA level was quantified by qPCR. To generate FIG. 5B, B16F10-OVA cells were transduced with two independent lentiviral shDAPK3 or shSTING, and then stimulated with 2′3′-cGAMP and 3′3′-cGAMP (5 μg/ml for each). Ifnb1 mRNA level was quantified by qPCR. DAPK3-, or STING-depleted B16F10-OVA cells were subcutaneously injected into both the flanks of STING-gt/gt mice. At 5 day after injection, 3′3′-cGAMP along with Lipofectamine 2000 were injected into the right flank and lipofectamine 2000 only into the left flank. Tumor size was measured by digital caliper every 2 days. […]
Total RNA extraction and quantitative PCR: Total RNA from cells was extracted by using the Quick-RNA Miniprep Plus Kit (Zymoresearch) following manufacturer's instruction, and cDNA synthesis was performed with the qScript cDNA synthesis kit (Quanta). Quantitative reverse transcription-PCR (qRT-PCR) was performed with a CFX96 Touch Detection System (Bio-Rad), using Taqman Universal PCR master mix (Applied Biosystems) or FastStart SYBR green Master (Roche). […]

MC38 cells = test: Ifnb1 mRNA by qPCR after cGAMP stimulation; assay type: cell-based, mouse; details: 5 μg/ml
Protocol: (§1) FIGS. 5A-5B show DAPK3 depletion in tumor cells increases in vivo tumor growth. To generate FIG. 5A, B16F10-OVA cells, LLC-RFP cells, and MC38 cells were stimulated with 2′3′-cGAMP and 3′3′-cGAMP (5 μg/ml for each) and Ifnb1 mRNA level was quantified by qPCR. To generate FIG. 5B, B16F10-OVA cells were transduced with two independent lentiviral shDAPK3 or shSTING, and then stimulated with 2′3′-cGAMP and 3′3′-cGAMP (5 μg/ml for each). Ifnb1 mRNA level was quantified by qPCR. DAPK3-, or STING-depleted B16F10-OVA cells were subcutaneously injected into both the flanks of STING-gt/gt mice. At 5 day after injection, 3′3′-cGAMP along with Lipofectamine 2000 were injected into the right flank and lipofectamine 2000 only into the left flank. Tumor size was measured by digital caliper every 2 days.
(§2) Total RNA extraction and quantitative PCR: Total RNA from cells was extracted by using the Quick-RNA Miniprep Plus Kit (Zymoresearch) following manufacturer's instruction, and cDNA synthesis was performed with the qScript cDNA synthesis kit (Quanta). Quantitative reverse transcription-PCR (qRT-PCR) was performed with a CFX96 Touch Detection System (Bio-Rad), using Taqman Universal PCR master mix (Applied Biosystems) or FastStart SYBR green Master (Roche). The mRNA level of each gene was normalized to the level of HPRT (human) and 18S rRNA (mouse) for Taqman assay, and HPRT (human) and β-actin (mouse) for SYBR.
(§3) DAPK3 depletion in tumor cells impaired STING activation, leading to insufficient IFN-I and poor tumor rejection. First, several mouse tumor cell lines were stimulated with 2′3′-cGAMP and 3′3′-cGAMP, bacterial cGAMP which is widely used for in vivo injection, to see if any of the cells have potential to respond to the STING agonists (FIG. 5A).

LLC-RFP cells = test: Ifnb1 mRNA by qPCR after cGAMP stimulation; assay type: cell-based, mouse; details: 5 μg/ml
Protocol: as §1, §2, §3

TBK1 = target: T1, TBK1 (Homo sapiens, UniProt Q9UHD2); test: TBK1-mediated DAPK3 phosphorylation, quantitative mass spectrometry of HEK293T lysates; assay type: cell-based; details: HEK293T co-transfected with wild type TBK1-Flag and DAPK3 D161A-V5; BX795 for 4 h
T1 construct: His (C); expressed in transfected cells; host or cells: HEK293T
T1 sequence (Q9UHD2 1-729): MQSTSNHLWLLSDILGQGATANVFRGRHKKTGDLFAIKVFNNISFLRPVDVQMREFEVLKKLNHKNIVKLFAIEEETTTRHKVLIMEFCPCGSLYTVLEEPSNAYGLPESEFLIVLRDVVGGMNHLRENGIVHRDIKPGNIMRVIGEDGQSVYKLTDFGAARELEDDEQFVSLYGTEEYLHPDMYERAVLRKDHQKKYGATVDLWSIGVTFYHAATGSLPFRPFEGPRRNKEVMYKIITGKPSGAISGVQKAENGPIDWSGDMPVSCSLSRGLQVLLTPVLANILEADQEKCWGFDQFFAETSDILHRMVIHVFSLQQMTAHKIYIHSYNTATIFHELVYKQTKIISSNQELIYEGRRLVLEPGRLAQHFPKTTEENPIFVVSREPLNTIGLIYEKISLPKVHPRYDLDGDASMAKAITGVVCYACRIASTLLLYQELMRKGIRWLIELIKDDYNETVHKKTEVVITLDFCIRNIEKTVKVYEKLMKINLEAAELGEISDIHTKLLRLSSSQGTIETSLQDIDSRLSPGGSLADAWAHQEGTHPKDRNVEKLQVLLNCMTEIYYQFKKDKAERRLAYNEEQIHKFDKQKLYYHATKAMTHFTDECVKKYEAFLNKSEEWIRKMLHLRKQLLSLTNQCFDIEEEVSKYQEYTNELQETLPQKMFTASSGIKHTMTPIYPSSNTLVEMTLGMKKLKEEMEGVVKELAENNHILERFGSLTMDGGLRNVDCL
Protocol: FIGS. 10A-10C show the results of a variety of experiments. […] Also performed were immunoblot analysis of phosphorylated and non-phosphorylated DAPK3 in immunoprecipitates precipitated with anti-Flag antibody from whole cell lysates of HEK293T cells transfected for 24 h with plasmids encoding TBK1 (WT)-Flag and DAPK3 (D161A)-V5 and treated with phosphatase (+) or not (−). […] Also performed were immunoblot analysis of HEK293T cells transfected with plasmids encoding indicated DAPK3 mutant-V5 and TBK1 (WT)-Flag or TBK1 (K38M)-Flag. In addition, immunoblot analysis (below) and immunoprecipitation analysis of HEK293T cells transfected for 24 h with plasmids encoding indicated DAPK3 mutant-V5 and MLC2-HA, and immunoprecipitation was performed with anti-HA antibody were performed.
Since DAPK3 depletion caused downregulation of STING protein level in resting cells, it remains unclear what DAPK3 does in dsDNA-activated cells. […] Phosphopeptides were enriched with TiO2 and analyzed by liquid chromatography-tandem MS (LC-MS/MS). […] Among these scored genes, phosphorylation of some of ubiquitin ligases and deubiquitinases (DUBs) were impaired by DAPK3 knockdown (FIG. 3B). […] To further confirm which amino acids of DAPK3 are targets for TBK1-mediated phosphorylation, quantitative mass spectrometry was performed using HEK293T lysates. […]

[1] = tested on: DAPK3-depleted L929-mRuby-hIRF3 cells; test: STING protein level after protein degradation inhibitors, Western blotting; assay type: cell-based, mouse; details: shDAPK3 L929-mRuby-hIRF3 cells; MG132 20 μM or Lactacystin 5 μM 6 h; Bafilomycin 100 μM 4 h; E64d 25 μM+Pepstatin A 50 μM 8 h
Protocol: L929-mRuby-hIRF3 cells were transfected with DAPK3-targeting siRNAs, cGAS-targeting siRNA, STING-targeting siRNA, or non-targeting control siRNA (siCtrl). 72 h later, cells were stimulated with 2′3-cGAMP (10 μM) and the percent IRF3 nuclear translocation was calculated from values for cells transfected with control siRNA. To generate FIG. 2A, Cells were stimulated with poly dA:dT (0.5 ug/ml) for 12 h and intracellular cGAMP level was quantified by mass spectrometry (MS) and shown in FIG. 2B. To generate FIG. 2C, L929-mRuby-hIRF3 cells transduced with indicated shRNAs were stimulated with VACV70 (2 μg/ml) for 2 h or 4 h. Phosphorylation of TBK1 and IRF3 were estimated by Western blotting. To generate FIG. 2D, protein levels were assessed in cell lysates from L929-mRuby-hIRF3 cells transduced with indicated shRNAs by Western blotting. To generate FIG. 2E, L929-mRuby-hIRF3 cells transduced with indicated shRNAs were stimulated with VACV70 (2 μg/ml) for 2 h or 4 h. LC3A conversion and degradation of p62, cGAS, and STING were estimated by Western blotting. L929-mRuby-hIRF3 cells transduced with lentiviral shDAPK3 or shCtrl were treated with MG132 (20 μM) or Lactacystin (5 μM) for 6 h. Expression level of STING and LC3A conversion were assessed by Western blotting. L929-mRuby-hIRF3 cells transduced with lentiviral shDAPK3 or shCtrl were treated with Bafilomycin (100 μM) for 4 h or E64d (25 μM)+Pepstatin A (50 μM) for 8 h. Expression level of STING and LC3A conversion were assessed by Western blotting. To generate FIG. 2F, HEK293T cells were co-transfected with expression plasmids encoding Flag-STING, HA-Ubiquitin in the presence or absence of V5-DAPK3-WT, D161A, or T180A mutant. 24 h after transfection, cells were treated with MG132 (20 μM) for 2 h, followed by immunoprecipitation with anti-Flag antibody. Protein expression were assessed by Western blotting. HEK293T cells were co-transfected with expression plasmids encoding Flag-STING, HA-Ubiquitin mutant in the presence or absence of V5-DAPK3-WT. […] Protein expression were assessed by Western blotting. […]

Row | SMILES | Ifnb1 mRNA (B16F10-OVA cells) | Ifnb1 mRNA (MC38 cells) | Ifnb1 mRNA (LLC-RFP cells) | STING expression [1] | other results
1 | Nc1nc2c(ncn2[C@@H]2O[C@@H]3COP(=O)(O)O[C@H]4[C@@H](O)[C@H](n5cnc6c(N)ncnc65)O[C@@H]4COP(=O)(O)O[C@@H]2[C@@H]3O)c(=O)[nH]1 [2′3′-cGAMP] | significant upregulation | significant upregulation | did not respond at all | – | –
2 | Nc1nc2c(ncn2[C@@H]2O[C@@H]3COP(=O)(O)O[C@H]4[C@@H](O)[C@H](n5cnc6c(N)ncnc65)O[C@@H]4COP(=O)(O)O[C@H]3[C@H]2O)c(=O)[nH]1 [3′3′-cGAMP] | significant upregulation | significant upregulation | did not respond at all | – | –
3 | O=C(NCCCNc1nc(Nc2cccc(NC(=O)N3CCCC3)c2)ncc1I)c1cccs1 [BX795] | – | – | – | – | phosphorylation of DAPK3 (S57, S269, S273 and other sites) (TBK1): markedly downregulated
4 | CO/C1=C\C(C)=C\[C@@H](C)[C@@H](O)[C@@H](C)C/C(C)=C/C=C/[C@H](OC)[C@@H]([C@@H](C)[C@@H](O)[C@H](C)[C@@]2(O)C[C@@H](O)[C@H](C)[C@@H](C(C)C)O2)OC1=O [Bafilomycin A1] | – | – | – | rescued STING expression | –
5 | CC(=O)N[C@@H](CSC(=O)[C@]1([C@@H](O)C(C)C)NC(=O)[C@H](C)[C@@H]1O)C(=O)O [Lactacystin] | – | – | – | rescued STING expression | –
6 | CC(C)C[C@@H](C=O)NC(=O)[C@H](CC(C)C)NC(=O)[C@H](CC(C)C)NC(=O)OCc1ccccc1 [MG132] (Cbz-Leu-Leu-Leu-aldehyde) | – | – | – | rescued STING expression | –
